# Experimental data: PubChem BioAssay AID816 (SRMLSC, 2007)
# The source made the active and inactive calls. The rule behind the calls is not given here.
# Tested on: S. cerevisiae GAL1 promoter reporter activation counterscreen
# Assay: GAL1 promoter activators in yeast, artefact control for yeast lifespan extension project, S. cerevisiae (AID 816);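 note: yeast growth read after 24 h of incubation with compounds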
row,Structure (SMILES),EC50
1,C=CS(=O)(=O)c1ccc(Oc2ccc(S(=O)(=O)C=C)cc2)cc1,> 40 µM (inactive)
2,C=CCn1c(C)cc(C(=O)CSc2nc3ccccc3c(=O)[nH]2)c1C,> 40 µM (inactive)
3,CCOc1ccc(/C=C/C(=O)c2c(O)c3ccccc3oc2=O)cc1,> 40 µM (inactive)
4,CCc1[nH]nc2c1C(c1ccc(Br)s1)C(C#N)=C(N)O2 (centres undefined),> 40 µM (inactive)
5,COc1ccc(CC(=O)Nc2ccc3c(c2)CCC3)cc1S(=O)(=O)N1CCOCC1,> 40 µM (inactive)
6,O=S(=O)(CCSc1ccccn1)c1nc2ccccc2s1,> 40 µM (inactive)
7,O=[N+]([O-])c1c(C(Cl)Cl)nn(-c2ccccc2)c1N1CCCC1,> 40 µM (inactive)
8,COn1c(SC2CCCCC2)nc2ccccc2c1=O,> 40 µM (inactive)
9,COc1cccc(C(=O)Oc2cc(N)n(S(=O)(=O)c3ccc(C)cc3)n2)c1OC,> 40 µM (inactive)
10,O=C(CCc1ccccc1)NCCCN1CCOCC1,> 40 µM (inactive)
11,CC(=O)C(C(C)=O)c1c(Cl)c(O)c(O)c2c(C(=O)c3ccccc3)coc12,> 40 µM (inactive)
12,CCCCOC(=O)CSc1nc2c(c(=O)[nH]c(=O)n2C)n1C/C=C(\C)Cl,> 40 µM (inactive)
13,CCn1ncc(/C=N/NC(=O)c2ccc3c(c2)OCO3)c1C,> 40 µM (inactive)
14,COC(=O)CCS(=O)(=O)c1nc(-c2ccccc2)cc(C(F)(F)F)n1,> 40 µM (inactive)
15,CC(C)(C)C1CCc2[nH]nc(C(=O)O)c2C1 (centres undefined),> 40 µM (inactive)
16,Cc1ccc(OCC(=O)c2c(O)c3ccccc3oc2=O)cc1C,> 40 µM (inactive)
17,CC1C/C(=C\c2cccnc2)C(=O)/C(=C/c2cccnc2)C1 (centres undefined),> 40 µM (inactive)
18,NC(=S)N/N=C/c1coc2cc(Cl)ccc2c1=O,> 40 µM (inactive)
19,CCOc1cc(/C=C\[N+](=O)[O-])ccc1OCC(=O)Nc1ccccc1C,> 40 µM (inactive)
20,CCc1nc(SCC(=O)c2ccc3c(c2)OCCO3)c2ccccc2n1,> 40 µM (inactive)
21,O=C(O)c1ccc(O)c(N2C(=O)Nc3ccccc3N2O)c1,> 40 µM (inactive)
22,Cc1ccsc1C(=O)Nc1nnc(-c2ccco2)o1,> 40 µM (inactive)
23,CCn1ccc(C(=O)Nc2ccc(S(=O)(=O)Nc3ccccc3OC)cc2)n1,> 40 µM (inactive)
24,CC1(C)Cc2ccccc2-c2nnc(SCC(=O)Nc3ccc4c(c3)OCO4)n21,> 40 µM (inactive)
25,O=C1ON=C(c2ccccc2)/C1=C/c1ccc(-c2ccccc2[N+](=O)[O-])o1,> 40 µM (inactive)

row,Structure (SMILES),EC50
1,O=c1cc(-c2ccccc2Cl)oc2ccc([N+](=O)[O-])c(O)c12,> 40 µM (inactive)
2,Cc1ccc(/C=C/C(=O)C2C(=O)c3ccccc3C2=O)cc1,> 40 µM (inactive)
3,Cc1cc(C)cc(CC2CC(=O)N(c3ccc(Cl)cn3)C2=O)c1 (centres undefined),> 40 µM (inactive)
4,CC1=NN(c2ccc(C(F)(F)F)cn2)C(=O)C1,> 40 µM (inactive)
5,CCC(=O)N1CCN(CCN=CC2=C(O)CC(c3cccs3)CC2=O)CC1 (centres undefined),> 40 µM (inactive)
6,Cc1ccc(Oc2nc3ccccc3n3c(C)nnc23)c(C)c1,> 40 µM (inactive)
7,CCCCC(=O)Nc1ccc(C(=O)NNC(=S)NC(=O)c2cccs2)cc1,> 40 µM (inactive)
8,COc1ccc(C(=O)C(CN2CCOCC2)c2ccccc2)cc1 (centres undefined),> 40 µM (inactive)
9,Cc1cccc(N2C(=O)C(Oc3ccc(Cl)cc3Cl)C2C=O)c1C (centres undefined),> 40 µM (inactive)
10,COC(=O)C1=C(C(=O)OC)C(c2cc(Br)ccc2O)c2sc(=O)[nH]c2S1 (centres undefined),> 40 µM (inactive)
11,CC(C)c1nnc(NC(=O)c2c(O)c3cccc4c3n(c2=O)CCC4)s1,> 40 µM (inactive)
12,CN1OC(c2ccccc2)=C(CO)C1c1ccccc1 (centres undefined),> 40 µM (inactive)
13,Nc1cccc2c1C(=O)N(C(=O)c1ccc(Cl)c(S(=O)(=O)N3CCCCCC3)c1)C2=O,> 40 µM (inactive)
14,COc1ccc2c(=O)c3c(=O)n(Cc4ccco4)c(-c4ccc(C)cc4)nc3oc2c1,> 40 µM (inactive)
15,COc1cc(OC)cc(-c2nc3ccccc3c(=O)n2OC(=O)c2ccc(C)c(C)c2)c1,> 40 µM (inactive)
16,COc1cnc(-c2ccccn2)nc1Sc1cccc(Cl)c1,> 40 µM (inactive)
17,CCOc1ccccc1/C=c1\sc2ncnn2c1=O,> 40 µM (inactive)
18,COc1ccccc1C(=O)Oc1cc(N)n(S(=O)(=O)c2ccc(C)cc2)n1,> 40 µM (inactive)
19,CC1CCCN(c2nc3ccccc3nc2C(C#N)C(=O)OC2CCCCC2)C1 (centres undefined),> 40 µM (inactive)
20,O=CN(/C=C1\Sc2ccccc2C1=O)Cc1ccccc1,> 40 µM (inactive)
21,CCCC(=Nc1ccccc1OC)C1=C(O)CC(c2ccccc2)CC1=O (centres undefined),> 40 µM (inactive)
22,CCCCn1c(=O)c2c(O)cc(=O)oc2c2ccccc21,> 40 µM (inactive)
23,O=C(Nc1scc(-c2cccs2)c1C(=O)O)c1cccs1,> 40 µM (inactive)
24,O=C(/C=C/c1ccccc1)Nc1ncn[nH]1,> 40 µM (inactive)
25,CC(C)c1noc2ncc(C(=O)c3cc(Cl)cc(Cl)c3O)cc12,> 40 µM (inactive)

row,Structure (SMILES),EC50
1,O=c1c2ccccc2nc(-c2cccc(Cl)c2)n1O,> 40 µM (inactive)
2,CC[n+]1c(/C=C2\C=C(C)CC(C)(C)C2)sc2ccccc21,> 40 µM (inactive)
3,O=C1C=CCC(/C=C/c2ccccc2)O1 (centres undefined),> 40 µM (inactive)
4,N#C/C(=C\c1ccccc1)C(=O)N(c1ccccn1)C1CCCCC1,> 40 µM (inactive)
5,C=CCN(CC=C)S(=O)(=O)c1ccc2nc(NC(=O)C(C)C)sc2c1,> 40 µM (inactive)
6,CCCCCOC(=O)CSc1nc2c(c(=O)[nH]c(=O)n2C)n1CCc1ccccc1,> 40 µM (inactive)
7,Oc1ccc(Br)cc1C=Nc1ccc2[nH]ncc2c1,> 40 µM (inactive)
8,Cc1ccc(NC(=O)Nc2nc(-c3ccc(C)s3)cs2)cc1,> 40 µM (inactive)
9,CC1(C)Oc2ccccc2OC1(O)c1ccc2ccccc2n1 (centres undefined),> 40 µM (inactive)
10,CCCCC1C(=O)CC[C@H]2[C@@H]1CC(=O)[C@@H]2C/C=C\CCCC(=O)O (some centres undefined),> 40 µM (inactive)
11,CCc1oc2ccccc2c1C(=O)CCN1CCCCC1,> 40 µM (inactive)
12,CCOc1ccc2nc(NCCNC(=O)Nc3ccccc3)c(C#N)cc2c1,> 40 µM (inactive)
13,Cc1ccc(S(=O)(=O)Nc2ccccc2/C=N/c2nc3ccccc3n2C(C)C)cc1,> 40 µM (inactive)
14,COc1ccccc1-c1c(C)oc2cc(OC(=O)c3ccco3)ccc2c1=O,> 40 µM (inactive)
15,Cc1cccc(N2C(=O)/C(=C\c3ccc(OC(F)F)cc3)c3ccccc3C2=O)c1,> 40 µM (inactive)
16,Cc1ccc(N/C(C(Cl)=C(Cl)Cl)=C(/Cl)[N+](=O)[O-])c(C)c1,> 40 µM (inactive)
17,C=C(C)CN(CC)C(=O)COc1ccc(S(=O)(=O)Nc2ccc(OC)cc2)cc1,> 40 µM (inactive)
18,O=c1c(Cl)c(NCCCO)cnn1-c1nc2ccccc2[nH]1,> 40 µM (inactive)
19,Cc1ccc(S(=O)(=O)N[C@@H](Cc2ccccc2)C(=O)CCl)cc1,> 40 µM (inactive)
20,O=C(NCc1ccc(Cl)cc1)c1ccccc1CCc1ccccc1,> 40 µM (inactive)
21,CCCc1cc(=O)oc2cc(C)c(CN3CCCC3)c(O)c12,> 40 µM (inactive)
22,O=c1c2c3c(sc2ncn1/N=C/c1ccc([N+](=O)[O-])o1)CCCC3,> 40 µM (inactive)
23,O=C1NCC2=C1C(c1ccc(Br)cc1)Nc1ccccc1N2 (centres undefined),> 40 µM (inactive)
24,CCCCN(CCCC)c1ccc(C(=O)c2ccccc2C(=O)O)c(O)c1,> 40 µM (inactive)
25,CS(=O)(=O)c1nc(-c2ccccc2)cc(C(F)(F)F)n1,> 40 µM (inactive)

row,Structure (SMILES),EC50
1,CCOc1ccc(C2=NNC(c3cccs3)=Nc3ccc(OCC)cc32)cc1,> 40 µM (inactive)
2,COc1ccc(C(CNC(=O)c2cccc(Br)c2)N2CCCC2)cc1 (centres undefined),> 40 µM (inactive)
3,CCc1cc2c(=O)c(Oc3ccccc3)c(C)oc2cc1O,> 40 µM (inactive)
4,CC(=Nc1ccc2c(c1)nc(CO)n2C)C1=C(O)CC(C)(C)CC1=O,> 40 µM (inactive)
5,Cc1c(NC(=O)C(=O)/C=C(/O)c2ccccc2)c(=O)n(-c2ccccc2)n1C,> 40 µM (inactive)
6,CCC1CCCCN1S(=O)(=O)c1ccc(S(=O)(=O)N(Cc2cccs2)C2CC2)cc1 (centres undefined),> 40 µM (inactive)
7,CCOc1cc(Br)c(Br)c(C=Nc2ccc(NC(C)=O)cc2)c1O,> 40 µM (inactive)
8,C/C=C/Cn1c(N2CCCCCC2)nc2c1c(=O)[nH]c(=O)n2C,> 40 µM (inactive)
9,CCOC(=O)c1c(NC(=O)C2C3C=CC(C3)C2C(=O)O)sc2c1CCC(CC)C2 (centres undefined),> 40 µM (inactive)
10,CCOC(=O)/C(=C/c1ccc(OC(=O)c2ccccc2)cc1)C(C)=O,> 40 µM (inactive)
11,COc1ccc2c(=O)c3c(=O)n(Cc4ccco4)c(-c4ccco4)nc3oc2c1,> 40 µM (inactive)
12,CN(C)/C=C(/C(=O)c1ccc(Cl)cc1Cl)S(=O)(=O)c1ccc(Cl)cc1,> 40 µM (inactive)
13,O=[N+]([O-])c1cc2oc3c(c2c(C=NCc2ccccc2)c1O)CCCC3,> 40 µM (inactive)
14,CCN1CCCC1CNC(=O)COc1cc(=O)n(C)c2ccccc12 (centres undefined),> 40 µM (inactive)
15,C=C1C(=O)C=C2CN(C(=O)c3ccccc3)[C@@](Cc3ccc(F)cc3)(C(=O)OC)[C@@H]12,> 40 µM (inactive)
16,CC1CCCCN1C(=S)Nc1ccc2nc3n(c(=O)c2c1)CCCCC3 (centres undefined),> 40 µM (inactive)
17,CN1C(=O)/C(=C/c2cccn2-c2ccc3ccccc3c2)C(=O)NC1=S,> 40 µM (inactive)
18,CC(C)Cc1nn2c(=O)cc(O)nc2s1,> 40 µM (inactive)
19,COc1ccc(NC(=S)N2CCN(CCN=CC3=C(O)CC(c4ccccc4)CC3=O)CC2)cc1 (centres undefined),> 40 µM (inactive)
20,CCn1cc(C(=O)O)c(=O)c2ccc(C)nc21,> 40 µM (inactive)
21,CC(C)c1ccc2occ(-c3nn[nH]n3)c(=O)c2c1,> 40 µM (inactive)
22,O=C1Nc2ccccc2C12OCC1(CO2)COC2(OC1)C(=O)Nc1ccccc12 (centres undefined),> 40 µM (inactive)
23,CN(C)C1(c2nnnn2CCOC(=O)Nc2ccc(Cl)cc2)CCCCC1,> 40 µM (inactive)
24,Cc1ccc2[nH]c(=O)c(CN(CCO)Cc3nnnn3CCc3ccccc3)cc2c1,> 40 µM (inactive)
